Experimental data from patent US7579338B2, “Methods and compositions for treating atheroma, tumors and other neoplastic tissues” (Pharmacyclics, Inc., priority 1999, dated 2009).

Tests used:
[1] = Oxidation of NADPH under approximate physiologic conditions (HPLC, NADP+ formation); type: biochemical; conditions: substrate NADPH, pH 7.5, Michaelis-Menton fit, triplicate; for Km: read-out: KM (dissociation or Michaelis constant), NADPH oxidation
Protocol: The following stock solutions were prepared: • Stock NADPH (Sigma N 7505) (prepared fresh daily): 12.2 mg/(10 mL. 833.4 mg/mmol)=1.46 mM • Stock GdTex: 5.76 mg/(10.0 mL water. 1148 mg/mmol)=501.7 μM • Stock 4× Buffer: 200 mM HEPES, pH 7.5; 400 mM NaCl; 0.4 mM EDTA • Stock LuTex: 5.02 mg/(10.0 mL water×1166 mg/mmol)=431 μM These were combined to form the reaction mixtures analyzed by HPLC, for example: • 250 μL 4× Buffer, 250 μL NADPH Stock, 427 μL Water, 72.7 μL GdTex Stock • 250 μL 4× Buffer, 250 μL NADPH Stock, 457.7 μL Water, 42.3 μL LuTex Stock The HPLC Method employed was as follows: 1. HPLC Operating Parameters: • System—HPLC system capable of delivering gradient mobile phase • Detector wavelength—260 nm • Injection Volume—20 μL • Pressure—ca: 2000 psi • Column Temperature—40° C. • Column—Nucleogel DEAE 60-7 125×4 mm 2. Mobile Phase: • Solution A—0.75 M KH2PO4, pH 3.8 • Solution B—0.016 M KH2PO4, pH 3.8
A reaction mixture was prepared containing NADPH, water and sufficient buffer to maintain the solution at pH 7.5. Texaphyrin, 0.1 molar equivalent to the NADPH, was added to this reaction mixture, vortexed briefly, and then the solution placed in the HPLC sampler for immediate injection. Further injections were made at appropriate time points, whereupon the integrated peak areas of both NADPH and NADP^+ were measured and used to calculate the extent of reaction at a given time point.
Provided that the amount of texaphyrin was sufficiently low relative to substrate, the percentage of NADP^+ generated by the reaction plotted against time initially gave a straight line. (For LuTex, it was necessary to drop the catalyst concentration to ca. 0.05 equivalent.) The slope of initial time points (eg., plotting as mM concentration vs time in hours) provided a rate which was used as a point in a saturation (Michaelis-Menton) plot. This process was repeated at various concentrations of NADPH. Data (in triplicate) was fitted to the Michaelis-Menton equation (initial reaction velocity/catalyst concentration)=(kcat×substrate concentration)/(KM+substrate concentration), where substrate is NADPH, catalyst is texaphyrin complex, kcat is the first-order rate constant for the catalyst, and KM is the dissociation (or Michaelis) constant for the catalyst/substrate complex. For GdTex, kcat=0.049±0.003 min^−1 and KM=1.69±0.17 mM. For LuTex, kcat=0.119±0.011 min^−1 and KM=0.56±0.20 mM.
1B. By following the procedure of Example 1A using a single concentration of NADPH and employing 0.1 equivalent of test compound, the results illustrated in FIG. 16 were obtained.

[2] = system: MES-SA human uterine cells; assay: Proliferation of MES-SA cells with ascorbate and texaphyrin (MTT); type: cell-based; conditions: for cytotoxic effect of texaphyrin with 333 μM ascorbate: texaphyrin 25-100 μM, 5 hours exposure, MTT after 72 hours; for cytotoxic effect of texaphyrin at lower concentrations of ascorbate: ascorbate below 333 μM (111 μM and 62.5 μM for GdTex); for cytotoxic/inhibitory effect of texaphyrin in the absence of ascorbate: no ascorbate, texaphyrin up to 100 μM
Protocol: The proliferation of MES-SA human uterine cells (Harker, W. G.; MacKintosh, F. R.; Sikic, B. I. Cancer Res. 1983, 43, 4943-4950) grown in RPMI-1640 medium in the presence of ascorbate or complex was used to assess the formation of hydrogen peroxide under cell culture conditions.
5A. Materials and Methods. MES-SA cells were allowed to adhere to (4) 96-well microtiter plates (4000 cells per well) overnight in 160 μL RPMI medium. Stock ascorbate 3.0 mM in medium (80 μL) was serially diluted (1:3) in rows B through F (discarding the final 80 μL). Row G was used for no-ascorbate control. Stock solutions of GdTex (2 mM in 5% mannitol) diluted in medium and 5% mannitol were prepared and added to the plates to give a final volume of 200 μL in all wells. Columns 2 and 3 contained 100 μM GdTex; columns 4 and 5 contained 75 μM GdTex, columns 6 and 7 contained 50 μM GdTex; columns 8 and 9 contained 25 μM GdTex; and columns 10 and 11 contained no GdTex (all concentrations final). Final mannitol concentration was 0.25% in all wells. The plates were incubated at 37 C under a 5% CO2/95% air atmosphere. Complex-containing medium was exchanged for fresh medium after 5 hours, and plates were incubated an additional 72 hours prior to analysis for viability using the tetrazolium dye, MTT (Mosmann, T. J. Immunol. Methods 1983, 65, 55-63). In brief, 20 μL MTT dye (Sigma Chemical, St. Louis, Mo., catalogue no. M 2128, 5 mg/mL solution in phosphate buffered saline) was added to cells in media to give a final volume of 200 μL. The plates were incubated at 37° C. for ca. 2 hours, whereupon the media was removed and isopropyl alcohol (100 μL/well) was added. Plates were vortexed for ca. 3 minutes to dissolve MTT formazan, then read on a microplate reader at 560-650 nm. Plate absorbances were normalized to wells containing neither ascorbate nor GdTex to allow plate to plate comparison. Data for each concentration of GdTex and ascorbate is the average of eight wells.
The proliferation of MES-SA human uterine cells grown in RPMI-1640 medium in the presence of ascorbate and LuTex was used to assess the production of hydrogen peroxide under cell culture conditions following the protocol outlined in the previous example.

| SMILES | kcat (first-order rate constant for the catalyst), NADPH oxidation [1] | Km [1] | cytotoxic effect of texaphyrin with 333 μM ascorbate [2] | cytotoxic effect of texaphyrin at lower concentrations of ascorbate [2] | cytotoxic/inhibitory effect of texaphyrin in the absence of ascorbate [2] |
| --- | --- | --- | --- | --- | --- |
| CC(=O)[O-].CC(=O)[O-].CCc1c(CC)c2cc3nc(cnc4cc(OCCOCCOCCOC)c(OCCOCCOCCOC)cc4ncc4nc(cc1[n-]2)C(CCCO)=C4C)C(C)=C3CCCO.O.[Gd+3] [GdTex, motexafin gadolinium] | 0.000817 ± 5e-05 s⁻¹ | 1690 ± 170 µM | complete cytotoxicity | dose-response was observed | no cytotoxic effect |
| CC(=O)[O-].CC(=O)[O-].CCc1c(CC)c2cc3nc(cnc4cc(OCCOCCOCCOC)c(OCCOCCOCCOC)cc4ncc4nc(cc1[n-]2)C(CCCO)=C4C)C(C)=C3CCCO.O.[Lu+3] [LuTex, motexafin lutetium] | 0.00198 ± 0.000183 s⁻¹ | 560 ± 200 µM | dose-response was observed | No inhibitory effect | no inhibitory effect |
